From ChEMBL document CHEMBL1201862, “PubChem BioAssay data set” (2004)
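1) Cells in 96-well plates. 2) Compound, 48 h, 5 concentrations. 3) Linear interpolation between surrounding doses. 4) Unreached endpoint = highest concentration. At the GI50, growth is halved.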 The source made the active and inactive calls. Cut-off read from the data, not from the text of the source: active = GI50 up to about 1.1 µM and inactive = higher.

Tests used:
Assay in all cases: inhibition of tumour cell growth, NCI panel, 48 h
[1] = system: A549
[2] = system: ACHN
[3] = system: HCC 2998
[4] = system: HL-60
[5] = system: IGROV-1
[6] = system: MCF7
[7] = system: MDA-MB-435
[8] = system: Malme-3M
[9] = system: NCI-H23
[10] = system: NCI-H460
[11] = system: NCI-H522
[12] = system: NCI/ADR-RES
[13] = system: SF-268
[14] = system: SK-MEL-28
[15] = system: SK-MEL-5
[16] = system: SK-OV-3
[17] = system: SNB-19
[18] = system: UACC-257
[19] = system: UACC-62
[20] = system: SK-MEL-2

Measured: GI50

CN(C)c1nc(-c2ccccc2)c(C(=O)c2c[nH]c3ccccc23)s1
inactive: [1] 6.62 µM | [2] 30.5 µM | [3] 6.55 µM | [4] 3.4 µM | [5] 3.89 µM | [6] 4.48 µM | [7] 2.09 µM | [8] 11.2 µM | [9] 30 µM | [10] 3.55 µM | [11] 2.76 µM | [12] 3.06 µM | [13] 9.2 µM | [14] > 35.2 µM | [15] 8.57 µM | [16] 7.6 µM | [17] 14.8 µM | [18] 6.71 µM | [19] 6.05 µM

N#Cc1nnn(-c2ccc(Br)cc2)c1O
inactive: [1] > 100 µM | [2] > 100 µM | [3] > 100 µM | [4] > 100 µM | [5] > 100 µM | [6] > 100 µM | [7] > 100 µM | [8] > 100 µM | [9] > 100 µM | [11] > 100 µM | [12] > 100 µM | [13] > 100 µM | [14] > 100 µM | [20] > 100 µM | [16] > 100 µM | [17] > 100 µM | [18] > 100 µM | [19] > 100 µM

CC(=O)OCc1ccc(-c2nc(C#N)c(N)o2)o1
inactive: [1] > 10 µM | [2] > 10 µM | [3] > 10 µM | [4] > 10 µM | [5] > 10 µM | [6] > 10 µM | [7] > 10 µM | [8] > 10 µM | [9] > 10 µM | [10] > 10 µM | [11] > 10 µM | [12] > 10 µM | [13] > 10 µM | [14] > 10 µM | [15] > 10 µM | [16] > 10 µM | [17] > 10 µM | [18] > 10 µM | [19] > 10 µM

CCc1ccc(COC(=O)C2=C(C)NC(C)=C(C(=O)OCc3ccc(CC)cn3)C2C2=COCCO2)nc1
inactive: [1] 25.2 µM | [2] 25.2 µM | [3] 19.9 µM | [4] 22.4 µM | [5] 39.8 µM | [6] 19.5 µM | [7] 19.5 µM | [9] 20 µM | [10] 31.5 µM | [11] 19.5 µM | [12] 22 µM | [13] 27.4 µM | [14] 18.5 µM | [15] 13.3 µM | [16] 16.6 µM | [17] 18.8 µM | [18] 20.5 µM | [19] 13.5 µM

CC(C)=CCc1c(O)c(CC2=C(O)C(CC=C(C)C)(C(=O)C(C)C)C(O)=C(C)C2=O)c(O)c(C(=O)C(C)C)c1O (configuration not stated)
inactive: [1] 14.1 µM | [2] 11.8 µM | [3] 7.8 µM | [4] 39 µM | [5] 10.9 µM | [6] 11.7 µM | [7] 16.2 µM | [8] 8.02 µM | [9] 8.43 µM | [11] 6.55 µM | [12] 10.6 µM | [13] 9.86 µM | [14] 13.2 µM | [20] 11.5 µM | [15] 7.87 µM | [16] 18.8 µM | [17] 7.73 µM | [18] 11.5 µM | [19] 7.98 µM

O=C(C1C(c2ccccc2)N1C(c1ccccc1)c1ccccc1)C1C(c2ccccc2)N1C(c1ccccc1)c1ccccc1 (configuration not stated)
inactive: [1] 39 µM | [2] > 10 µM | [3] 17.7 µM | [4] 2.88 µM | [5] > 10 µM | [6] 5.31 µM | [7] 36.4 µM | [10] 15.5 µM | [11] 5.71 µM | [12] 27.4 µM | [13] 24.7 µM | [14] 15.7 µM | [15] 20.6 µM | [16] > 100 µM | [17] 97.5 µM | [18] 18.5 µM

Cc1cc(C)c(/C=C2\C(=O)Nc3ccccc32)[nH]1 [SEMAXANIB]
inactive: [1] > 65.3 µM | [2] 66.2 µM | [3] 38.8 µM | [4] 7.28 µM | [6] 83.9 µM | [7] > 96.4 µM | [8] > 58.5 µM | [9] 7.96 µM | [10] > 57.8 µM | [11] > 49.9 µM | [12] > 100 µM | [13] > 100 µM | [14] > 100 µM | [20] > 75.9 µM | [15] > 90.8 µM | [16] > 66.7 µM | [17] > 100 µM | [18] > 100 µM | [19] > 100 µM

O=C1CC2(CCC(O)(c3cccc4ccccc34)C(C(=O)c3cccc4ccccc34)C2)C(=O)c2ccccc2N1 (configuration not stated)
inactive: [1] > 100 µM | [3] 26.1 µM | [4] > 10 µM | [5] > 100 µM | [6] 36 µM | [7] 72.6 µM | [8] > 100 µM | [9] 62.2 µM | [10] 7.78 µM | [12] > 100 µM | [13] 15.7 µM | [14] 11.1 µM | [20] > 100 µM | [15] 24.8 µM | [16] 46.3 µM | [17] 5.09 µM | [18] > 100 µM | [19] 81.5 µM

OCCN1c2ccccc2Sc2ccccc21
inactive: [1] > 10 µM | [2] > 10 µM | [3] > 10 µM | [4] > 10 µM | [6] > 10 µM | [7] > 10 µM | [8] > 10 µM | [9] > 10 µM | [11] > 10 µM | [12] > 10 µM | [13] > 10 µM | [14] > 10 µM | [15] > 10 µM | [16] > 10 µM | [17] > 10 µM | [18] > 10 µM

COC(=O)[C@H](Cc1ccccc1)NP(=O)(O)OCC1C=CC(n2cc(C)c(=O)[nH]c2=O)O1 (some centres not stated)
inactive: [1] > 100 µM | [2] 26.3 µM | [3] > 100 µM | [4] > 100 µM | [5] > 100 µM | [6] > 100 µM | [7] > 100 µM | [8] > 100 µM | [9] > 100 µM | [10] > 100 µM | [11] > 100 µM | [12] > 100 µM | [13] > 100 µM | [20] > 100 µM | [15] > 100 µM | [16] > 100 µM | [17] > 100 µM | [18] > 100 µM | [19] > 100 µM

CC1(C)CC(=O)c2c(nc3c4c([nH]c(-c5ccc([N+](=O)[O-])cc5)c24)CC(C)(C)C3)C1
inactive: [1] 27.6 µM | [2] 28 µM | [3] 27.5 µM | [4] 15.6 µM | [6] 27.7 µM | [7] 24.7 µM | [8] > 100 µM | [9] 48.5 µM | [10] 38.5 µM | [11] 48.5 µM | [12] 21.5 µM | [13] 50.9 µM | [14] 60.8 µM | [20] 35.2 µM | [15] 26.2 µM | [16] > 100 µM | [17] 48.4 µM | [18] 67 µM | [19] 21.7 µM

C=C[C@@](C)(/C=C/c1ccc(O)cc1)CCC=C(C)C [BAKUCHIOL]
inactive: [1] 17.8 µM | [2] 10.6 µM | [3] 20.6 µM | [4] 14.1 µM | [5] 15.8 µM | [6] 19.5 µM | [7] 18.2 µM | [9] 16.7 µM | [10] 15.6 µM | [11] 17.1 µM | [12] 16.2 µM | [14] 20 µM | [20] 22 µM | [15] 16 µM | [16] 16.3 µM | [17] 19.1 µM | [18] 17.7 µM

COc1cc(C(=O)C2CC3(CCC2(O)c2cc(OC)c(OC)c(OC)c2)CC(=O)Nc2ccccc2C3=O)cc(OC)c1OC (configuration not stated)
inactive: [1] > 100 µM | [3] 50.7 µM | [4] 30.5 µM | [5] > 100 µM | [6] 60.4 µM | [7] > 100 µM | [8] > 100 µM | [9] 88.9 µM | [10] 21.5 µM | [12] > 100 µM | [13] > 100 µM | [14] > 100 µM | [20] 89.9 µM | [15] 21.3 µM | [16] > 100 µM | [17] > 100 µM | [18] > 100 µM | [19] > 100 µM

Nc1nc(Cl)cc(NCC2(CCO)CCC2)n1
inactive: [1] > 100 µM | [2] > 100 µM | [3] > 100 µM | [4] > 100 µM | [5] > 100 µM | [6] > 100 µM | [7] > 100 µM | [8] > 100 µM | [9] > 100 µM | [10] > 100 µM | [11] > 100 µM | [12] > 100 µM | [14] > 100 µM | [20] > 100 µM | [15] > 100 µM | [16] > 100 µM | [17] > 100 µM | [18] > 100 µM | [19] > 10 µM

O=c1cc(N2CCCC2)[nH]c(=O)n1-c1ccccc1
inactive: [1] > 100 µM | [2] > 100 µM | [3] 37 µM | [4] > 100 µM | [5] > 100 µM | [6] > 100 µM | [7] > 100 µM | [8] > 100 µM | [9] > 100 µM | [10] > 100 µM | [11] > 100 µM | [12] > 100 µM | [13] > 10 µM | [14] > 100 µM | [20] > 100 µM | [15] > 100 µM | [17] > 100 µM | [18] > 100 µM
